Data published in patent publication US10085449B2, “N-[1-((6-chloropyridin-3-yl)methyl)pyridin-2(1H)-ylidene]-2,2,2- trifluoroacetamide for control of agricultural/horticultural pests” (priority 2010, dated 2018).
Where two headings read alike, the source gives them in different places.

Tests used:
Type in all cases: in vivo
small brown planthopper [1] = assay: whole plant or invertebrate; details: Laodelphax striatellus, 72 h
Description: (§1) Rice seedlings grown in pots were subjected to soil drenching treatment with solutions of the inventive compounds at a predetermined concentration prepared to 10% acetone/water. Three days following treatment, ten second-instar small brown planthopper larvae were released onto each seedling. The treated seedlings and larvae were then held in an incubation chamber at 25° C. (16-hour period of light, 8-hour dark period). Three days after released, the numbers of live and dead insects were counted, and the mortality was calculated from the following formula. The test was carried out as two replications. Mortality (%)=[number of dead insects/(number of live insects+number of dead insects)]×100

[2] = test system: brown rice planthopper having a low susceptibility to insecticides; design: key to Brown rice planthopper, Kumamoto low susceptibility (rice soil drenching), effect: mortality %, dead/(live+dead) ×100; details: rice soil drenching, 0.05 mg/pot
Description: as §1, with “days after” for “days following”, “second-instar” for “second-instar small”, “brown rice” for “brown”, “larvae having a low susceptibility to insecticides” for “larvae”, “The” for “The treated”, “and insects” for “and larvae”
The pests used in this test were insects that had been raised indoors for successive generations over a long period of time (susceptible line), and insects that had been raised indoors for successive generations after being collected (I) in 2007 within Kumamoto Prefecture and (II) in 2005 within Fukuoka Prefecture (field-collected lines).

cotton aphid = assay: whole plant or invertebrate; details: Aphis gossypii, foliar
Description: (§2) Leaf discs 2.0 cm in diameter were cut from cucumber plants grown in pots, and these were sprayed with solutions of the inventive compounds at a predetermined concentration prepared to 50% acetone/water (containing 0.05% Tween 20). The treated leaf discs were air dried, following which first-instar larvae were released onto the discs. The leaf discs and larvae were then held in an incubation chamber at 25° C. (16-hour period of light, 8-hour dark period). Three days after released, the numbers of live and dead insects were counted, and the mortality was calculated from the following formula. This was a two-replication test. Mortality (%)=[number of dead insects/(number of live insects+number of dead insects)]×100

small brown planthopper [3] = assay: whole plant or invertebrate; details: Laodelphax striatellus, in Triticum aestivum, 96 h
Description: as §1, with “Wheat seedling roots 48 hours after sowing” for “Rice seedlings grown in pots”, “treated” for “subjected to soil drenching treatment”, “After allowing the roots to absorb the chemical for 72 hours,” for “Three days following treatment,”, “Four” for “Three”

diamondback moth = assay: whole plant or invertebrate; details: Plutella xylostella, foliar
Description: as §2, with “5.0” for “2.0”, “cabbage” for “cucumber”, “second-instar” for “first-instar”

rice leaf bug = assay: whole plant or invertebrate; details: foliar, 72 h
Description: The treated seedlings were air-dried, then each was placed in a glass cylinder and two second-instar rice leaf bug larvae were released within the same glass cylinder. Following release of the insects, the tube was capped and held in an incubation chamber at 25° C. (16-hour period of light, 8-hour dark period). […] Three days after released, the numbers of live and dead insects were counted, and the mortality was calculated from the following formula. Mortality (%)=[number of dead insects/(number of live insects+number of dead insects)]×100

common cutworm = assay: whole plant or invertebrate; details: foliar application, 500 ppm
Description: as §2, with “5.0” for “2.0”, “cabbage” for “cucumber”, “third-instar” for “first-instar”

western flower thrips = assay: whole plant or invertebrate; details: Frankliniella occidentalis, foliar
Description: as §2, with “2.8” for “2.0”, “bean” for “cucumber”

[4] = rice soil drenching, 0.05 mg/pot (Table 13), read-out: Small brown planthopper (rice soil drenching), effect
[5] = rice soil drenching, 0.01 mg/pot (Table 13), read-out: Small brown planthopper (rice soil drenching), effect
[6] = soil, read-out: Small brown planthopper (rice soil drenching), effect
[7] = soil, read-out: Insecticidal effects (mortality), small brown planthopper second-instar larvae
[8] = read-out: Insecticidal effects (mortality), small brown planthopper second-instar larvae
[9] = read-out: Insecticidal effects (mortality), western flower thrips first-instar larvae
[10] = read-out: Insecticidal effects (mortality), cotton aphid first-instar larvae
[11] = read-out: Insecticidal effects (mortality), diamondback moth second-instar larvae

N#CN=c1ccccn1Cc1ccc(Cl)nc1 [Comparative Example 2, N-[1-((6-chloropyridin-3-yl)methyl)pyridin-2(1H)-ylidene]cyanamide, reference compound]
pest or weed control at 0.05 mg/pot (small brown planthopper [1]; [4]): 20%

CC(=O)/N=c1\ccccn1Cc1ccc(Cl)nc1 [Comparative Example 3, N-[1-((6-chloropyridin-3-yl)methyl)pyridin-2(2H)-ylidene]acetamide, reference compound]
pest or weed control at 0.05 mg/pot (small brown planthopper [1]; [4]): 10%

O=C(/C=C1\NCCN1Cc1ccc(Cl)nc1)C(F)(F)F [Comparative Example 4, 3-[1-((6-chloropyridin-3-yl)methyl)imidazolidin-2-ylidene]-1,1,1-trifluoropropan-2-one, reference compound]
pest or weed control at 0.01 mg/pot (small brown planthopper [1]; [5]): 20% | pest or weed control at 0.05 mg/pot (small brown planthopper [1]; [4]): 100% | Brown rice planthopper, Kumamoto low susceptibility (rice soil drenching), effect [2]: 45

O=C(/C=C1\SCCN1Cc1ccc(Cl)nc1)C(F)(F)F [Comparative Example 5, 3-[3-((6-chloropyridin-3-yl)methyl)thiazolidin-2-ylidene]-1,1,1-trifluoropropan-2-one, reference compound]
pest or weed control at 0.01 mg/pot (small brown planthopper [1]; [5]): 15% | pest or weed control at 0.05 mg/pot (small brown planthopper [1]; [4]): 95% | Brown rice planthopper, Kumamoto low susceptibility (rice soil drenching), effect [2]: 25

O=C(C(C(=O)C(F)(F)F)=C1NCCN1Cc1ccc(Cl)nc1)C(F)(F)F [Comparative Example 6, 3-[1-((6-chloropyridin-3-yl)methyl)imidazolidin-2-ylidene]-1,1,1,5,5,5-hexafluoropentan-2,4-dione, reference compound]
pest or weed control at 0.01 mg/pot (small brown planthopper [1]; [6]): 20% | pest or weed control at 0.05 mg/pot (small brown planthopper [1]; [6]): 100% | Brown rice planthopper, Kumamoto low susceptibility (rice soil drenching), effect [2]: 25

O=C(/N=C1\NCCN1Cc1ccc(Cl)nc1)C(F)(F)F [Comparative Example 7, N-[1-((6-chloropyridin-3-yl)methyl)imidazolidin-2-ylidene]-2,2,2-trifluoroacetamide, reference compound]
pest or weed control at 0.01 mg/pot (small brown planthopper [1]; [5]): 5% | pest or weed control at 0.05 mg/pot (small brown planthopper [1]; [4]): 63% | Brown rice planthopper, Kumamoto low susceptibility (rice soil drenching), effect [2]: 20

O=C(/N=C1\SCCN1Cc1ccc(Cl)nc1)C(F)(F)F [Comparative Example 8, N-[3-((6-chloropyridin-3-yl)methyl)thiazolidin-2-ylidene]-2,2,2-trifluoroacetamide, reference compound]
pest or weed control at 0.05 mg/pot (small brown planthopper [1]; [4]): 20%

N#CNCc1ccc(Cl)nc1 [Compound 1 in Patent Document 1, N-[(6-chloropyridin-3-yl)methyl]cyanamide, reference compound]
mortality at 500 ppm (cotton aphid; in Cucumis sativus, 72 h): 65%

O=C(N=c1ccccn1Cc1ccc(Cl)nc1)C(Cl)(Cl)Cl [Compound 235, 2,2,2-trichloro-N-[1-((6-chloropyridin-3-yl)methyl)pyridin-2(1H)-ylidene]acetamide]
mortality at 20 µg/seedling (small brown planthopper [3]): ≥ 80% | mortality at 20 ppm (cotton aphid; in Cucumis sativus, 72 h): ≥ 80% | mortality at 100 ppm (cotton aphid; in Cucumis sativus, 72 h): ≥ 80% | mortality at 500 ppm (cotton aphid; in Cucumis sativus, 72 h): ≥ 80% | mortality at 100 ppm (diamondback moth; in Brassica oleracea, 72 h): ≥ 80% | mortality at 500 ppm (diamondback moth; in Brassica oleracea, 72 h): ≥ 80%

O=C(CCl)N=c1ccccn1Cc1ccc(Cl)nc1 [Compound 236, 2-chloro-N-[1-((6-chloropyridin-3-yl)methyl)pyridin-2(1H)-ylidene]acetamide]
mortality at 50 ppm (rice leaf bug): ≥ 80% | mortality at 20 ppm (cotton aphid; in Cucumis sativus, 72 h): ≥ 80% | mortality at 100 ppm (cotton aphid; in Cucumis sativus, 72 h): ≥ 80%

CC(c1ccc(Cl)nc1)n1ccccc1=NC(=O)C(F)(F)F (centres unmarked) [Compound 237, N-[1-(1-(6-chloropyridin-3-yl)ethyl)pyridin-2(1H)-ylidene]-2,2,2-trifluoroacetamide]
Insecticidal effects (mortality), common cutworm third-instar larvae (common cutworm): 33 | pest or weed control at 0.01 mg/pot (small brown planthopper [1]; [5]): 75% | pest or weed control at 0.05 mg/pot (small brown planthopper [1]; [4]): 100% | mortality at 0.05 mg/seedling (small brown planthopper [1]; soil): ≥ 80% | mortality at 0.01 mg/pot (small brown planthopper [1]; [7]): 75% | mortality at 0.05 mg/pot (small brown planthopper [1]; [7]): 100% | mortality at 20 µg/seedling (small brown planthopper [3]): ≥ 80% | mortality at 0.5 mg/seedling (small brown planthopper [3]; [8]): 50% | mortality at 2 mg/seedling (small brown planthopper [3]; [8]): 100% | mortality at 20 mg/seedling (small brown planthopper [3]; [8]): 100% | mortality at 500 ppm (western flower thrips; 72 h): ≥ 80% | mortality at 500 ppm (western flower thrips; [9]): 90% | mortality at 20 ppm (cotton aphid; [10]): 85% | mortality at 100 ppm (cotton aphid; [10]): 100% | mortality at 500 ppm (cotton aphid; [10]): 100% | mortality at 20 ppm (cotton aphid; in Cucumis sativus, 72 h): ≥ 80% | mortality at 100 ppm (cotton aphid; in Cucumis sativus, 72 h): ≥ 80% | mortality at 500 ppm (cotton aphid; in Cucumis sativus, 72 h): ≥ 80% | mortality at 20 ppm (diamondback moth; [11]): 100% | mortality at 100 ppm (diamondback moth; [11]): 100% | mortality at 500 ppm (diamondback moth; [11]): 100% | mortality at 100 ppm (diamondback moth; in Brassica oleracea, 72 h): ≥ 80% | mortality at 500 ppm (diamondback moth; in Brassica oleracea, 72 h): ≥ 80%

O=C(N=c1ccccn1Cc1ccc(Cl)nc1)C(F)F [Compound 238, N-[1-((6-chloropyridin-3-yl)methyl)pyridin-2(1H)-ylidene]-2,2-difluoroacetamide]
Insecticidal effects (mortality), common cutworm third-instar larvae (common cutworm): 0 | pest or weed control at 0.005 mg/pot (small brown planthopper [1]; rice soil drenching, 0.005 mg/pot (Table 13), read-out: Small brown planthopper (rice soil drenching), effect): 33% | pest or weed control at 0.01 mg/pot (small brown planthopper [1]; [5]): 100% | pest or weed control at 0.05 mg/pot (small brown planthopper [1]; [4]): 100% | mortality at 0.05 mg/seedling (small brown planthopper [1]; soil): ≥ 80% | mortality at 0.005 mg/pot (small brown planthopper [1]; [7]): 33% | mortality at 0.01 mg/pot (small brown planthopper [1]; [7]): 100% | mortality at 0.05 mg/pot (small brown planthopper [1]; [7]): 100% | mortality at 20 µg/seedling (small brown planthopper [3]): ≥ 80% | mortality at 0.063 mg/seedling (small brown planthopper [3]; [8]): 25% | mortality at 0.25 mg/seedling (small brown planthopper [3]; [8]): 100% | mortality at 0.5 mg/seedling (small brown planthopper [3]; [8]): 100% | mortality at 2 mg/seedling (small brown planthopper [3]; [8]): 100% | mortality at 20 mg/seedling (small brown planthopper [3]; [8]): 100% | mortality at 100 ppm (western flower thrips; 72 h): ≥ 80% | mortality at 100 ppm (western flower thrips; [9]): 95% | mortality at 1.25 ppm (cotton aphid; [10]): 100% | mortality at 5 ppm (cotton aphid; [10]): 100% | mortality at 20 ppm (cotton aphid; [10]): 100% | mortality at 100 ppm (cotton aphid; [10]): 100% | mortality at 20 ppm (cotton aphid; in Cucumis sativus, 72 h): ≥ 80% | mortality at 100 ppm (cotton aphid; in Cucumis sativus, 72 h): ≥ 80% | mortality at 20 ppm (diamondback moth; [11]): 60% | mortality at 100 ppm (diamondback moth; [11]): 100% | mortality at 100 ppm (diamondback moth; in Brassica oleracea, 72 h): ≥ 80%

O=C(N=c1ccccn1Cc1ccc(Cl)nc1)C(Br)Br [Compound 241, 2,2-dibromo-N-[1-((6-chloropyridin-3-yl)methyl)pyridin-2(1H)-ylidene]-acetamide]
mortality at 20 µg/seedling (small brown planthopper [3]): ≥ 80% | mortality at 20 ppm (cotton aphid; in Cucumis sativus, 72 h): ≥ 80% | mortality at 100 ppm (cotton aphid; in Cucumis sativus, 72 h): ≥ 80% | mortality at 500 ppm (diamondback moth; in Brassica oleracea, 72 h): ≥ 80%
